The values that follow come from patent US10130616B2, “Securinine and norsecurinine analogue compounds for the treatment of myeloid disorders” (Case Western Reserve University, priority 2013, dated 2018).

Like-named read-outs stand apart in the source and are kept apart here.

As a reminder, the IC50 is the midpoint of a concentration-inhibition curve.

The subject of assay [1] is CD14 and CD11b. Conditions: flow cytometry; cited from earlier work. (In flow cytometry, cells or beads pass a laser one at a time.)
Assay [2] relates to HL-60 leukemic cells. Conditions: HL-60 cells; from U.S. patent application Ser. No. 14/029,066; cited from earlier work.
In assay [3] the test system is MOLT3. Description: Growth inhibition of MOLT3 cells. Type of assay: cell-based. The method, then: (§1) In certain embodiments, securinine and norsecurinine analogues were administered to cancerous cells, such as acute myeloblastic leukemia cells (e.g., MOLT3 and OCI-AML3) and growth inhibition was analyzed. The analogues were effective in inhibiting myeloid growth in addition to promoting differentiation, and provide for reduced proliferation of acute myeloblastic leukemia cells (Table 2).

Assay [4] has as its system HL-60 cells. The experiment in a line: Growth of HL-60 cells (IC50). It counts as cell-based, human. Conditions: value bracketed between tested concentrations, read-out: HL-60, IC50.
Assay [5] deals with OCI-AML3. The experiment in a line: Growth inhibition of OCI-AML3 cells. It counts as cell-based. As to the method:
as §1

Assay [6] has as its system HL-60 leukemic cells. Description: Nitroblue Tetrazolium (NBT) reduction assay, differentiation of HL-60 leukemic cells. It counts as cell-based, human. The text has this: In an aspect of the present disclosure, the compounds of the disclosure can be identified using a novel high-throughput screen that is biased to identify agents that have both a high potency and low toxicity in a myeloid disorder disease model, such as an animal or cell model. In some embodiments, the high-throughput screen measures the differentiation of HL-60 leukemic cells using a quantitative nitroblue tetrazolium (NBT) reduction assay. Screening HL-60 cells, human promyelocytic cells, is advantageous as they have been used extensively as a cell line to study myeloid differentiation. Though promyelocytic cells, HL-60 cells were derived from a patient with acute myeloblastic leukemia with maturation, FAB-M2.
This technique has also been widely exploited in HL-60 cells to analyze myelomonocytic differentiation.
The NBT screen works due to changes in the oxidoreductases during differentiation that lead to increases in rates of NBT reduction. NBT is reduced due to the production of superoxide that is catalyzed by an NADPH oxidase. […] NBT is reduced by superoxide from a soluble yellow compound to insoluble blue formazan granules whose formation can be monitored spectrophotometrically at 560 nm as the unreduced dye has minimal absorbance at this wavelength. A quantitative NBT reduction assay is ideal for this type of screen as it is simple, sensitive, quantitative, requires minimal cells, has been proven to have low well to well variability, and the amount of reduced NBT is proportional to the number of cells reducing the dye as well as the amount reduced by each cell.
To discover novel AML differentiation-inducing compounds a rapid high-throughput screen (HTS) was developed and optimized. The screen was designed to be biased to identify compounds that, unlike the majority of known differentiation-inducing agents, have both high potency and low toxicity. The screen measured the differentiation of HL-60 leukemic cells using a quantitative Nitroblue Tetrazolium (NBT) reduction assay, a test that is used extensively as a measure of functional myelomonocytic differentiation. The basis for the screen is unreduced NBT exists as a yellow soluble dye. Differentiated leukemic cells are capable of producing a respiratory burst that can reduce NBT into a blue insoluble compound that can be measured spectrophotometrically. This forward chemical genetics approach allowed the discovery of novel compounds that can act on targets not previously known to be “drugable.” As only live cells can reduce NBT, the screen is biased in identifying relatively nontoxic compounds.
To perform the screen, duplicate plates of HL-60 cells were cultured at a density of 5×10^4 cells/mL with 10 μM of each compound in 96 well plates for 5 days. To determine the relative capability for a compound to induce differentiation compared to known potent inducers, each plate destined for the NBT reduction assay included wells with 0.1% DMSO (vehicle control) and 1 μM ATRA. This approach eliminates any slight day to day variation in NBT reduction values and allows the discovery of compounds with similar or greater efficacy to ATRA. Differentiation was determined in the 96 well plates by incubating the cells with 1 mg/mL of NBT and 200 ng/mL of PMA as the stimulant for the respiratory burst for 35 minutes at 37° C. The reaction was then stopped with HCl and the formazan solubilized with DMSO. Finally, the reaction mixture was read spectrophotometrically at 560 nm in a plate reader.
The securinine and norsecurinine analogues were tested and evaluated on their abilities to affect differentiation and growth of HL-60 cells (Table 1).

Where [7] appears, read: Homo sapiens, MOLT-3, MOLT3 cells, read-out: MOLT3 IC50.
[8] abbreviates: Homo sapiens, HL-60, HL-60 cells.
Setting [9] is: Homo sapiens, OCI-AML-3, OCI-AML3 cells, read-out: OCI-AML3 IC50.
The mark [10] stands for this setting: Homo sapiens, HL-60 cells, value bracketed between tested concentrations, read-out: HL-60, Dif50.
Where [11] appears, read: Homo sapiens, HL-60, read-out: HL-60, Dif50.
Where [12] appears, read: HL-60 cells, value bracketed between tested concentrations, read-out: HL-60, Dif50.

For the molecule `CC1=C(/C=C/C(C)=C/C=C/C(C)=C/C(=O)O)C(C)(C)CCC1` [ATRA, all-trans-retinoic acid], in assay [1], the “induction of cell surface markers CD14 and CD11b” value is “primarily induces CD11b”. Moreover, the “cells differentiated, NBT reduction assay” value in assay [2] was ~95%. As for `O=C1C=C2C(C#Cc3ccccc3)=C[C@@H]3C[C@@]2(O1)[C@H]1CCCCN31` [Compound 17], the results for the IC50 in assay [3] (setting [7]), in assay [4] (setting [8]) and in assay [5] (setting [9]) were 70 nM, 70 to 156 nM and 80 nM, respectively. For the molecule `CN(C)CC#CC1=C[C@@H]2C[C@@]3(OC(=O)C=C13)[C@H]1CCCCN21` [Compound 18], the IC50 was 70 nM in assay [3] (setting [7]), 70 to 156 nM in assay [4] (setting [8]) and 90 nM in assay [5] (setting [9]). Taken in the same sequence, the figures for `CCOC#CC1=C[C@@H]2C[C@@]3(OC(=O)C=C13)[C@H]1CCCCN21` [Compound 22] were 196 nM, 310 to 625 nM and 220 nM. For `N#CCCCC#CC1=C[C@@H]2C[C@@]3(OC(=O)C=C13)[C@H]1CCCCN21` [Compound 26], the IC50 in assay [3] (setting [7]) is 160 nM; in assay [5] (setting [9]), 195 nM.

In the case of `C=C(C)CC#CC1=C[C@@H]2C[C@@]3(OC(=O)C=C13)[C@H]1CCCCN21` [Compound 28], the IC50 was 165 nM in assay [3] (setting [7]), 156 to 310 nM in assay [4] (setting [8]) and 200 nM in assay [5] (setting [9]). Taken in the same sequence, the figures for `COc1ccc(C#CC2=C[C@@H]3C[C@@]4(OC(=O)C=C24)[C@H]2CCCCN32)cc1` [Compound 29] were 60 nM, 39 to 78 nM and 80 nM. Taken in the same sequence, the figures for `O=C1C=C2C(C#Cc3ccsc3)=C[C@@H]3C[C@@]2(O1)[C@H]1CCCCN31` [Compound 31] were 60 nM, 156 to 310 nM and 75 nM. For the molecule `CCN(CC)CC#CC1=C[C@@H]2C[C@@]3(OC(=O)C=C13)[C@H]1CCCCN21` [Compound 35], the IC50 in assay [3] (setting [7]) amounted to 130 nM; in assay [5] (setting [9]), 110 nM. `CN(C)c1ccc(C#CC2=C[C@@H]3C[C@@]4(OC(=O)C=C24)[C@H]2CCCCN32)cc1` [Compound 36]: the IC50 is 115 nM in assay [3] (setting [7]), 156 to 310 nM in assay [4] (setting [8]) and 105 nM in assay [5] (setting [9]). Turning to `CCCN(CC#CC1=C[C@@H]2C[C@@]3(OC(=O)C=C13)[C@H]1CCCCN21)CCC` [Compound 39], the IC50 in assay [3] (setting [7]) is 80 nM; in assay [5] (setting [9]), 70 nM. Consider `COc1ccc2cc(C#CC3=C[C@@H]4C[C@@]5(OC(=O)C=C35)[C@H]3CCCCN43)ccc2c1` [Compound 40], for which the IC50 in assay [3] (setting [7]) was 90 nM; in assay [5] (setting [9]) it was 105 nM. Take `O=C1C=C2C(C#Cc3cc4ccccc4c4ccccc34)=C[C@@H]3C[C@@]2(O1)[C@H]1CCCCN31` [Compound 41]: the IC50 was 150 nM in assay [3] (Homo sapiens, MOLT-3, read-out: MOLT3 IC50 (nM)) and 180 nM in assay [5] (Homo sapiens, OCI-AML-3, read-out: OCI-AML3 IC50 (nM)). For the molecule `N#Cc1ccc(C#CC2=C[C@@H]3C[C@@]4(OC(=O)C=C24)[C@H]2CCCCN32)cc1` [Compound 46], the results for the IC50 in assay [3] (setting [7]), in assay [4] (setting [8]) and in assay [5] (setting [9]) were 145 nM, 310 to 625 nM and 205 nM, respectively. On the same counts, the results for `COc1cccc(C#CC2=C[C@@H]3C[C@@]4(OC(=O)C=C24)[C@H]2CCCCN32)c1` [Compound 47] are 150 nM, 310 to 625 nM and 215 nM.

Regarding `O=C1C=C2C(C#Cc3ccc(OC(F)(F)F)cc3)=C[C@@H]3C[C@@]2(O1)[C@H]1CCCCN31` [Compound 48], the figures for the IC50 in assay [3] (setting [7]), in assay [4] (setting [8]) and in assay [5] (setting [9]) were > 300 nM, 310 to 625 nM and > 300 nM, respectively. For the molecule `O=C1C=C2CC(n3nnc4ccccc43)[C@@H]3C[C@@]2(O1)[C@H]1CCCCN31` (stereo partly shown) [Compound 92], the EC50 in assay [6] (setting [10]) is 20000 to 30000 nM. Regarding `O=C1C=C2CC(SCc3ccccc3)[C@@H]3C[C@@]2(O1)[C@H]1CCCCN31` (stereo partly shown) [Compound 93], the EC50 in assay [6] (setting [11]) is > 30000 nM. Consider `O=C1C=C2CC(SCc3ccccc3O)[C@@H]3C[C@@]2(O1)[C@H]1CCCCN31` (stereo partly shown) [Compound 94], for which, in assay [6] (setting [11]), the EC50 fell in the range of 15000 to 20000 nM.

Turning to `CC(C)(C)OC(=O)NCCSC1CC2=CC(=O)O[C@@]23C[C@@H]1N1CCCC[C@@H]13` (stereo partly shown) [Compound 95], the EC50 in assay [6] (setting [10]) lay within 15000 to 20000 nM. Consider `CSC1CC2=CC(=O)O[C@@]23C[C@@H]1N1CCCC[C@@H]13` (stereo partly shown) [Compound 96], for which the EC50 in assay [6] (setting [11]) lay within 10000 to 15000 nM. Same read-out and setting: as for `O=C1C=C2CC(SC3CCCC3)[C@@H]3C[C@@]2(O1)[C@H]1CCCCN31` (stereo partly shown) [Compound 97], the figure is 15000 to 20000 nM. As for `O=C1C=C2CC(n3ccnc3)[C@@H]3C[C@@]2(O1)[C@H]1CCCCN31` (stereo partly shown) [Compound 99], the EC50 in assay [6] (setting [10]) lay within 15000 to 20000 nM. Same read-out and setting: as for `CC(C)NCCSC1CC2=CC(=O)O[C@@]23C[C@@H]1N1CCCC[C@@H]13` (stereo partly shown) [Compound 100], the figure is 15000 to 20000 nM. As for `O=C1C=C2C[C@H](SCC(F)(F)F)[C@@H]3C[C@@]2(O1)[C@H]1CCCCN31` [INVS-MG-5B], the EC50 in assay [6] (setting [12]) is > 30000 nM. Still for that read-out and setting: the same measure for `COc1ccc(CN[C@@H]2CC3=CC(=O)O[C@@]34C[C@@H]2N2CCCC[C@@H]24)cc1` [INVS-MG-86C]: > 30000 nM. In the case of `CO[C@H]1CC2=CC(=O)O[C@@]23C[C@@H]1N1CCCC[C@@H]13` [INVS-MG-97-IIB], the EC50 in assay [6] (setting [12]) is > 30000 nM.

With `O=C1C=C2C(C#Cc3ccsc3)=C[C@@H]3C[C@@]2(O1)[C@H]1CCCCN31` [INVS-MG-136-III], the IC50 was 100 nM in assay [3] (MOLT3 cells, read-out: MOLT3 IC50); < 70 nM in assay [4] (HL-60 cells); 115 nM in assay [5] (OCI-AML3 cells, read-out: OCI-AML3 IC50). For the molecule `C[N+]12CCCC[C@@H]1[C@]13C[C@H]2C=CC1=CC(=O)O3` (stereo partly shown) [Sec-1], the EC50 in assay [6] (setting [12]) was > 30000 nM. `C=C1CC[C@H](O)C/C1=C/C=C1\CCC[C@]2(C)[C@@H]([C@H](C)CCCC(C)C)CC[C@@H]12` [vitamin D3]: the “induction of cell surface markers CD14 and CD11b” value in assay [1] is “induce CD14 and CD11b”.
